The results in this text go back to US20250296971A1, “GASTRIC INHIBITORY PEPTIDE RECEPTOR LIGANDS” (priority 2021, published 2025).

*1 amine or outer side, *2 acyl side, *3 side chain or, on linkers, in order; H or OH if unused. Where a SMILES comes first, the peptide text is derived from it. Bridges are numbered along the chain shown (N, C = ends). [ ]: non-standard residue; d: D form. The star is where a group is joined. NH(1-deoxy-D-glucityl) = OC[C@@H](O)[C@@H](O)[C@H](O)[C@@H](O)CN*; DO3AM = NC(=O)CN1CCN(CC(N)=O)CCN(CC(=O)*)CCN(CC(N)=O)CC1; DOTA = O=C(O)CN1CCN(CC(=O)O)CCN(CC(=O)*)CCN(CC(=O)O)CC1; Maleimide(3,4-diyl) = O=C1NC(=O)C([*:2])=C1[*:1]; Trp(5-Cl) = N[C@@H](Cc1c[nH]c2ccc(Cl)cc12)C(=O)O; Pyridine(2,6-diCH2) = c1cc(C[*:1])nc(C[*:2])c1; Trp(5-F) = N[C@@H](Cc1c[nH]c2ccc(F)cc12)C(=O)O; Pro(4R-NH2) = N[C@H]1CN[C@H](C(=O)O)C1; 1Nal = N[C@@H](Cc1cccc2ccccc12)C(=O)O; Glutaryl = O=C(CCCC(=O)[*:2])[*:1]; Hyp = O=C(O)[C@@H]1C[C@@H](O)CN1; X1 = O=C(CN1CCC(N[*:1])CC1)[*:2]; αMeK = C[C@](N)(CCCCN)C(=O)O; hCys = N[C@@H](CCS)C(=O)O; Api = NC1(C(=O)O)CCNCC1; Thp = NC1(C(=O)O)CCOCC1; Bn = c1ccc(C*)cc1

This assay deals with T1, GIPR (CHO-K1-hGIPR cells) (Homo sapiens, UniProt P48546).
T1 construct: host or cells: CHO-K1
T1 sequence (P48546 22-466): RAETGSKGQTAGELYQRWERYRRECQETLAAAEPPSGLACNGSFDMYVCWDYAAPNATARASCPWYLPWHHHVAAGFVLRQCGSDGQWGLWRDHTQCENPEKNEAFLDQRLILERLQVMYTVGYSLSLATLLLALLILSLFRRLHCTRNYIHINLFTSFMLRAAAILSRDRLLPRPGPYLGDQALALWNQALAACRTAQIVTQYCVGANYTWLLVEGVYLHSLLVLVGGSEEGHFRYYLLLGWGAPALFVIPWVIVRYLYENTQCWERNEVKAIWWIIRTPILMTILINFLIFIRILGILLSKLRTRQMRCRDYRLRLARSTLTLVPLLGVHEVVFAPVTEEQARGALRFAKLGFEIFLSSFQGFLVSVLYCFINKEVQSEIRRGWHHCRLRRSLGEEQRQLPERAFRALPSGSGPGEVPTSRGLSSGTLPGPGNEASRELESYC
Description: FACS binding assay. The conditions noted are these: competition with 20 nM GIP-057, 4° C. for 1 hour, read-out: pIC50 Category (converted). An outline of the steps:
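CHO-K1 cells expressing human GIPR, washed in PBS/1% FCS, then stained with 1 μg/mL APC-streptavidin for 30 min on ice.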
For orientation: In flow cytometry, cells or beads pass a laser one at a time.

Turning to `CC[C@H](C)[C@@H]1NC(=O)[C@H](CC(C)C)NC(=O)C2(CCOCC2)NC(=O)[C@@H](NC(=O)[C@@H](CC(C)C)NC(=O)[C@H](CCC(=O)O)NC(=O)[C@@H]2C[C@@H](O)CN2C(=O)[C@H](Cc2c[nH]c3ccc(Cl)cc23)NC(=O)[C@H](Cc2c[nH]c3ccccc23)NC(=O)[C@H](CC(=O)O)NC(C)=O)CSC2=C(SC[C@@H](C(N)=O)NC1=O)C(=O)NC2=O` [GIP-360, Ac-Asp-Trp-5Clw-Hyp-Glu-leu-[Cys(mli)-Thp-Leu-Ile-Cys]-NH2] (Ac-DW[Trp(5-Cl)][Hyp]E[dL]C[Thp]LIC-NH2; linker 7-11 via Maleimide(3,4-diyl)), the IC50 is less than 10 nM.

For the molecule `CC[C@H](C)[C@@H]1NC(=O)[C@H](CC(C)C)NC(=O)C2(CCOCC2)NC(=O)[C@@H](NC(=O)[C@@H](CC(C)C)NC(=O)[C@H](CCC(=O)O)NC(=O)[C@@H]2C[C@@H](O)CN2C(=O)[C@H](Cc2c[nH]c3ccc(Cl)cc23)NC(=O)[C@H](Cc2c[nH]c3ccccc23)NC(=O)[C@H](CC(=O)O)NC(C)=O)CSC2=C(SCC[C@@H](C(N)=O)NC1=O)C(=O)NC2=O` [GIP-361, Ac-Asp-Trp-5Clw-Hyp-Glu-leu-[Cys(mli)-Thp-Leu-Ile-Hcy]-NH2] (Ac-DW[Trp(5-Cl)][Hyp]E[dL]C[Thp]LI[hCys]-NH2; linker 7-11 via Maleimide(3,4-diyl)), the IC50 was less than 10 nM.

For the molecule `CC[C@H](C)[C@@H]1NC(=O)[C@H](CC(C)C)NC(=O)C2(CCOCC2)NC(=O)[C@@H](NC(=O)[C@@H](CC(C)C)NC(=O)[C@H](CCC(=O)O)NC(=O)[C@@H]2C[C@@H](O)CN2C(=O)[C@H](Cc2c[nH]c3ccc(Cl)cc23)NC(=O)[C@H](Cc2c[nH]c3ccccc23)NC(=O)[C@H](CC(=O)O)NC(C)=O)CCSC2=C(SC[C@@H](C(N)=O)NC1=O)C(=O)NC2=O` [GIP-362, Ac-Asp-Trp-5Clw-Hyp-Glu-leu-[Hcy(mli)-Thp-Leu-Ile-Cys]-NH2] (Ac-DW[Trp(5-Cl)][Hyp]E[dL][hCys][Thp]LIC-NH2; linker 7-11 via Maleimide(3,4-diyl)), the IC50 was 10 to 79.4 nM.

Regarding `CC[C@H](C)[C@@H]1NC(=O)[C@H](CC(C)C)NC(=O)C2(CCOCC2)NC(=O)[C@@H](NC(=O)[C@@H](CC(C)C)NC(=O)[C@H](CCC(=O)O)NC(=O)[C@@H]2C[C@@H](O)CN2C(=O)[C@H](Cc2c[nH]c3ccc(Cl)cc23)NC(=O)[C@H](Cc2c[nH]c3ccccc23)NC(=O)[C@H](CC(=O)O)NC(C)=O)CCSSCC[C@@H](C(N)=O)NC1=O` [GIP-363, Ac-Asp-Trp-5Clw-Hyp-Glu-leu-[Hey-Thp-Leu-Ile-Hcy]-NH2] (Ac-DW[Trp(5-Cl)][Hyp]E[dL][hCys][Thp]LI[hCys]-NH2; disulfide 7-11), the IC50 was 10 to 79.4 nM.

For the molecule `CC[C@H](C)[C@@H]1NC(=O)[C@H](CC(C)C)NC(=O)C2(CCOCC2)NC(=O)[C@@H](NC(=O)[C@@H](CC(C)C)NC(=O)[C@H](CCC(=O)O)NC(=O)[C@@H]2C[C@@H](O)CN2C(=O)[C@H](Cc2c[nH]c3ccc(Cl)cc23)NC(=O)[C@H](Cc2c[nH]c3ccccc23)NC(=O)[C@H](CC(=O)O)NC(C)=O)CSSC[C@@H](C(N)=O)NC1=O` [GIP-364, Ac-Asp-Trp-5Clw-Hyp-Glu-leu-[Cys-Thp-Leu-Ile-Cys]-NH2] (Ac-DW[Trp(5-Cl)][Hyp]E[dL]C[Thp]LIC-NH2; disulfide 7-11), the IC50 is 100 to 794 nM.

Consider `CC[C@H](C)[C@H](NC(=O)[C@H](CC(C)C)NC(=O)[C@H](C)NC(=O)[C@H](CSCc1ccccc1)NC(=O)[C@H](CC(C)C)NC(=O)[C@H](CCC(=O)O)NC(=O)[C@@H]1CCCN1C(=O)[C@H](Cc1c[nH]c2ccccc12)NC(=O)[C@H](Cc1c[nH]c2ccccc12)NC(=O)[C@H](CC(=O)O)NC(=O)[C@H](Cc1ccc(O)cc1)NC(=O)[C@@H](N)CCSC)C(=O)N[C@@H](CSC)C(N)=O` [GIP-368] (H-MYDWWPELC(Bn)ALIC(Me)-NH2), for which the IC50 was 100 to 794 nM.

On to `CC[C@H](C)[C@H](NC(=O)[C@H](CC(C)C)NC(=O)[C@H](C)NC(=O)[C@H](CSC)NC(=O)[C@H](CC(C)C)NC(=O)[C@H](CCC(=O)O)NC(=O)[C@@H]1CCCN1C(=O)[C@H](Cc1c[nH]c2ccccc12)NC(=O)[C@H](Cc1c[nH]c2ccccc12)NC(=O)[C@H](CC(=O)O)NC(=O)[C@H](Cc1ccc(O)cc1)NC(=O)[C@@H](N)CCSC)C(=O)N[C@@H](CSCc1ccccc1)C(N)=O` [GIP-369] (H-MYDWWPELC(Me)ALIC(Bn)-NH2), for which the IC50 is greater than 1000 nM.

For the molecule `CC[C@H](C)[C@@H]1NC(=O)[C@H](CC(C)C)NC(=O)C2(CCN(C(=O)CN3CCN(CC(N)=O)CCN(CC(N)=O)CCN(CC(N)=O)CC3)CC2)NC(=O)[C@@H](NC(=O)[C@@H](CC(C)C)NC(=O)[C@H](CCC(=O)O)NC(=O)[C@@H]2C[C@@H](N)CN2C(=O)[C@H](Cc2c[nH]c3ccc(Cl)cc23)NC(=O)[C@H](Cc2c[nH]c3ccccc23)NC(=O)[C@H](CC(=O)O)NC(=O)CCCC(=O)NC[C@H](O)[C@@H](O)[C@H](O)[C@H](O)CO)CSCc2cccc(n2)CSC[C@@H](C(=O)NC2CCN(CC(=O)N[C@H](CCC(=O)NC[C@H](O)[C@@H](O)[C@H](O)[C@H](O)CO)C(N)=O)CC2)NC1=O` [GIP-370, AGLU-Glutar-Asp-Trp-5Clw-Tap-Glu-leu-[Cys(2Lut)-Apc(DOTAM)-Leu-Ile-Cys]-APAc-glu(AGLU)-NH2] ({NH(1-deoxy-D-glucityl)-Glutaryl}-DW[Trp(5-Cl)][Pro(4R-NH2)]E[dL]C[Api](DO3AM)LIC[X1][dE](NH(1-deoxy-D-glucityl))-NH2; linker 7-11 via Pyridine(2,6-diCH2)), the IC50 is less than 10 nM.

In the case of `CC[C@H](C)[C@@H]1NC(=O)[C@H](CC(C)C)NC(=O)[C@](C)(CCCCNC(=O)CN2CCN(CC(=O)O)CCN(CC(=O)O)CCN(CC(=O)O)CC2)NC(=O)[C@@H](NC(=O)[C@@H](CC(C)C)NC(=O)[C@H](CCC(=O)O)NC(=O)[C@@H]2C[C@@H](N)CN2C(=O)[C@H](Cc2c[nH]c3ccc(Cl)cc23)NC(=O)[C@H](Cc2c[nH]c3ccccc23)NC(=O)[C@H](CC(=O)O)NC(=O)CCCC(=O)NC[C@H](O)[C@@H](O)[C@H](O)[C@H](O)CO)CSCc2cccc(n2)CSC[C@@H](C(=O)NC2CCN(CC(=O)N[C@H](CCC(=O)NC[C@H](O)[C@@H](O)[C@H](O)[C@H](O)CO)C(N)=O)CC2)NC1=O` [GIP-371, AGLU-Glutar-Asp-Trp-5Clw-Tap-Glu-leu-[Cys(2Lut)-Amk(DOTA)-Leu-Ile-Cys]-APAc-glu(AGLU)-NH] ({NH(1-deoxy-D-glucityl)-Glutaryl}-DW[Trp(5-Cl)][Pro(4R-NH2)]E[dL]C[αMeK](DOTA)LIC[X1][dE](NH(1-deoxy-D-glucityl))-NH2; linker 7-11 via Pyridine(2,6-diCH2)), the IC50 was less than 10 nM.

Take `CC[C@H](C)[C@@H]1NC(=O)[C@H](CC(C)C)NC(=O)C2(CCOCC2)NC(=O)[C@@H](NC(=O)[C@@H](CC(C)C)NC(=O)[C@H](CCC(=O)O)NC(=O)[C@@H]2C[C@@H](O)CN2C(=O)[C@H](Cc2c[nH]c3ccc(Cl)cc23)NC(=O)[C@H](Cc2c[nH]c3ccc(Cl)cc23)NC(=O)[C@H](CC(=O)O)NC(C)=O)CSCc2cccc(n2)CSC[C@@H](C(N)=O)NC1=O` [GIP-379, Ac-Asp-5Clw-5Clw-Hyp-Glu-leu-[Cys(2Lut)-Thp-Leu-Ile-Cys]-NH2] (Ac-D[Trp(5-Cl)][Trp(5-Cl)][Hyp]E[dL]C[Thp]LIC-NH2; linker 7-11 via Pyridine(2,6-diCH2)): the IC50 was less than 10 nM.

Take `CC[C@H](C)[C@@H]1NC(=O)[C@H](CC(C)C)NC(=O)C2(CCOCC2)NC(=O)[C@@H](NC(=O)[C@@H](CC(C)C)NC(=O)[C@H](CCC(=O)O)NC(=O)[C@@H]2C[C@@H](O)CN2C(=O)[C@H](Cc2c[nH]c3ccc(Cl)cc23)NC(=O)[C@H](Cc2cccc3ccccc23)NC(=O)[C@H](CC(=O)O)NC(C)=O)CSCc2cccc(n2)CSC[C@@H](C(N)=O)NC1=O` [GIP-380, Ac-Asp-1Ni-5Clw-Hyp-Glu-leu-[Cys(2Lut)-Thp-Leu-Ile-Cys]-NH2] (Ac-D[1Nal][Trp(5-Cl)][Hyp]E[dL]C[Thp]LIC-NH2; linker 7-11 via Pyridine(2,6-diCH2)): the IC50 was less than 10 nM.

With `CC[C@H](C)[C@@H]1NC(=O)[C@H](CC(C)C)NC(=O)C2(CCOCC2)NC(=O)[C@@H](NC(=O)[C@@H](CC(C)C)NC(=O)[C@H](CCC(=O)O)NC(=O)[C@@H]2C[C@@H](O)CN2C(=O)[C@H](Cc2c[nH]c3ccc(Cl)cc23)NC(=O)[C@H](Cc2c[nH]c3ccccc23)NC(=O)[C@@H](CC(=O)O)NC(C)=O)CSCc2cccc(n2)CSC[C@@H](C(N)=O)NC1=O` [GIP-381, Ac-asp-Trp-5Clw-Hyp-Glu-leu-[Cys(2Lut)-Thp-Leu-Ile-Cys]-NH2] (Ac-[dD]W[Trp(5-Cl)][Hyp]E[dL]C[Thp]LIC-NH2; linker 7-11 via Pyridine(2,6-diCH2)), the IC50 is less than 10 nM.

On to `CC[C@H](C)[C@@H]1NC(=O)[C@H](CC(C)C)NC(=O)C2(CCOCC2)NC(=O)[C@@H](NC(=O)[C@@H](CC(C)C)NC(=O)[C@H](CCC(=O)O)NC(=O)[C@@H]2C[C@@H](O)CN2C(=O)[C@H](Cc2c[nH]c3ccc(Cl)cc23)NC(=O)[C@H](Cc2c[nH]c3ccc(F)cc23)NC(=O)[C@H](CC(=O)O)NC(C)=O)CSCc2cccc(n2)CSC[C@@H](C(N)=O)NC1=O` [GIP-382, Ac-Asp-5Fw-5Clw-Hyp-Glu-leu-[Cys(2Lut)-Thp-Leu-Ile-Cys]-NH2] (Ac-D[Trp(5-F)][Trp(5-Cl)][Hyp]E[dL]C[Thp]LIC-NH2; linker 7-11 via Pyridine(2,6-diCH2)), for which the IC50 was less than 10 nM.
